pIC50: −log10 of the molar value.
target: MAPK14 (human) (UniProt Q16539); test: Assessment of MAPK14 Kinase Activity
Sequence (Q16539 whole entry, looked up): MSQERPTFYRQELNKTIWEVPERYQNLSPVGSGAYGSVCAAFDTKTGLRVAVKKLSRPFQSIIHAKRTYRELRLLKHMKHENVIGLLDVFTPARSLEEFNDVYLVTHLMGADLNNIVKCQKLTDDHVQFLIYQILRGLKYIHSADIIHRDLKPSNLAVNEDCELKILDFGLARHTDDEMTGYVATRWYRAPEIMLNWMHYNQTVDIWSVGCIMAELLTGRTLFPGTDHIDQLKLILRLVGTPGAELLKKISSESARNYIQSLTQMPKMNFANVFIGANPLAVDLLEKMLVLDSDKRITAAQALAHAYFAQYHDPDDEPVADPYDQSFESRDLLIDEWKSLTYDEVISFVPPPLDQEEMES

| SMILES | pIC50 |
| --- | --- |
| Cc1ccc(NC(=O)Nc2sc(C(C)(C)C)cc2C(=O)N2CCN(C(=O)CN(C)C)CC2)cc1-c1cccnc1 | 6.00 to 7.00 |
| Cc1ccc(NC(=O)Nc2cn(C(C)(C)C)nc2C(=O)N2CCNC(=O)C2(C)C)cc1-c1ccc(N2CCOCC2)nc1 | > 7.00 |
| Cc1ccc(NC(=O)Nc2sc(C(C)(C)C)cc2C(=O)N2CCNC(=O)C2(C)C)cc1-c1ccc(OCCCN(C)C)nc1 | > 7.00 |
| Cc1ccc(NC(=O)Nc2sc(C(C)(C)C)cc2C(=O)N2CCNC(=O)C2(C)C)cc1-c1ccc(OCCN2CCNCC2)nc1 | > 7.00 |
| Cc1ccc(NC(=O)Nc2cn(C(C)(C)C)nc2C(=O)N2CCNC(=O)C2(C)C)cc1-c1cccnc1 | > 7.00 |
| CCNC(=O)c1ccc(-c2cc(NC(=O)Nc3sc(C(C)(C)C)cc3C(=O)N3CCNC(=O)C3(C)C)ccc2C)cn1 | > 7.00 |
| Cc1ccc(NC(=O)Nc2sc(C(C)(C)C)cc2C(=O)N2CCNC(=O)C2(C)C)cc1-c1ccc(OCCN2CCOCC2)nc1 | > 7.00 |
| Cc1ccc(NC(=O)Nc2sc(C(C)(C)C)cc2C(=O)N2CCNC(=O)C2(C)C)cc1-c1ccc(C(=O)N(C)C)nc1 | > 7.00 |
| Cc1ccc(NC(=O)Nc2sc(C(C)(C)C)cc2C(=O)N2CCNC(=O)C2(C)C)cc1-c1ccc(CN2CCOCC2)nc1 | > 7.00 |
| Cc1ccc(NC(=O)Nc2sc(C(C)(C)C)cc2C(=O)N2CCN(C)C(=O)C2(C)C)cc1-c1ccc(C(=O)N2CCOCC2)nc1 | > 7.00 |
| Cc1ccc(NC(=O)Nc2cn(C(C)(C)C)nc2C(=O)N2CCN(C)C(=O)C2(C)C)cc1-c1ccc(CN2CCOCC2)cn1 | > 7.00 |
| Cc1ccc(NC(=O)Nc2cc(C(C)(C)C)sc2C(=O)N2CCN(C)C(=O)C2(C)C)cc1-c1ccc(N2CCOCC2)nc1 | > 7.00 |
| Cc1ccc(NC(=O)Nc2sc(C(C)(C)C)cc2C(=O)N2CCNC(=O)C2(C)C)cc1-c1ccc(OCCN(C)C)nc1 | > 7.00 |
| CC(C)(C)c1cc(C(=O)N2CCNC(=O)C2(C)C)c(NC(=O)Nc2cccc(-c3ccc(OCCCN4CCOCC4)nc3)c2)s1 | > 7.00 |
| Cc1nc(-c2cccc(NC(=O)Nc3sc(C(C)(C)C)cc3C(=O)N3CCNC(=O)C3(C)C)c2)cs1 | > 7.00 |

From the Kinase Knowledgebase extract (Sharma et al. 2016)
